Like-named read-outs stand apart in the source and are kept apart here. Numbered stars: 1 amine (or outer) side, 2 acyl side, 3 side chain; on linkers, the order of the positions; unused ones are H or OH. Bridge positions count the residues as written; N and C are the ends. Square brackets hold non-standard residues; d marks the D form. Peptide text beside a SMILES is read from it. * marks the point of attachment. X8 = N=C(N)NCc1cccc(C[C@H](N[*:1])C(=O)[*:2])c1; Ala(morpholin-4-yl) = N[C@@H](CN1CCOCC1)C(=O)O; Phe(4-COOH) = N[C@@H](Cc1ccc(C(=O)O)cc1)C(=O)O; Phe(2-CF3) = N[C@@H](Cc1ccccc1C(F)(F)F)C(=O)O; Phe(3,5-F2) = N[C@@H](Cc1cc(F)cc(F)c1)C(=O)O; Bip = N[C@@H](Cc1ccc(-c2ccccc2)cc1)C(=O)O; Phe(3-Me) = Cc1cccc(C[C@H](N)C(=O)O)c1; hPhe = N[C@@H](CCc1ccccc1)C(=O)O; Cha = N[C@@H](CC1CCCCC1)C(=O)O; Carboxymethyl = O=C(O)C*; NMeA = CN[C@@H](C)C(=O)O; Orn = NCCC[C@H](N)C(=O)O; Dab = NCC[C@H](N)C(=O)O; Nva = CCC[C@H](N)C(=O)O
Legend:
[1] = biological target: T1, Alexa fluor-647 labeled human PD-L1-Ig binding to Jurkat cell line over-expressing human PD-1 (Homo sapiens, UniProt Q15116); experiment: Jurkat-PD-1 Cell Binding High-Content Screening Assay (CBA): Method 3 (Alexa fluor-647 labeled PD-L1-Ig); settings: Jurkat-PD-1 cells, Alexa fluor-647 labeled PD-L1-Ig 177 nM
T1 construct: expressed in transfected cells; host or cells: Jurkat
T1 sequence (Q15116 25-288): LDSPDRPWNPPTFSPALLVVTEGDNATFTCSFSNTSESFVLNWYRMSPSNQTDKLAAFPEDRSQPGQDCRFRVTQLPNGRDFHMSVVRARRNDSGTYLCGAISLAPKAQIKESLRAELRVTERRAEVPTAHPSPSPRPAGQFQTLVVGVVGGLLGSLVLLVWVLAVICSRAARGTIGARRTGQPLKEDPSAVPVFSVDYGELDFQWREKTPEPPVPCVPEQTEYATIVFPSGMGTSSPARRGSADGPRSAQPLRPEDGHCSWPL
Method in brief: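 Jurkat cells over-expressing human PD-1 in RPMI/10% FCS were preincubated 2 h at 37 °C with compound, then exposed 1 h to Alexa fluor-647 labeled human PD-L1-Ig (177 nM final). Cells fixed in 4% paraformaldehyde with Hoechst 33342 and binding quantified by high-content imaging.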

[2] = biological target: T2, PD1-PDL1 protein-protein binding interaction [hPD1(25-167)-hIgG, hPD-L1 (19-239)-6xHis] (Homo sapiens, UniProt Q15116); experiment: HTRF Assay (TR-FRET); settings: 5 nM hPD1-hIgG, 5 nM hPD-L1-6xHis, 24 hours at 25° C.
T2 construct: hPD1(25-167)-hIgG, BMS
T2 sequence (Q15116 25-167): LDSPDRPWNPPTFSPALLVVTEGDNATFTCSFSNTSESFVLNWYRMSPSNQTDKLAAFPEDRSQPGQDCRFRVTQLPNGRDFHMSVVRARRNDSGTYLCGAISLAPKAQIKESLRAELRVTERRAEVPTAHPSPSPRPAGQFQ
Description: A time-resolved fluorescence resonance energy transfer (TR-FRET) assay was employed to measure the inhibition of the PD1-PDL1 protein-protein binding interaction. The reaction buffer was prepared by mixing the HiBlock buffer and LANCE detection buffer (PerkinElmer, TRF1011F and CR97-100) at a 1:1 ratio. Assay reactions contained 5 nM human programmed cell death 1 [hPD1(25-167)-hIgG, BMS], 5 nM human programmed cell death ligand 1 [hPD-L1 (19-239)-6×His, BMS], in the presence of 1 nM LANCE Eu-W1024 Anti-Human IgG (Eu-anti hIgG, PerkinElmer, AD0074) and 20 nM SureLight Allophycocyanin-anti-6×His antibody (APC-anti-6×His, PerkinElmer, AD0059H). Test compounds were evaluated in a 10-point dose-response format with serial three-fold dilutions starting from a 2 uM top concentration. Reactions were carried out in a total volume of 10 uL in 384-well microtiter plates (Proxiplate white, PerkinElmer, 6008289). Plates were sealed and incubated for 24 hours at 25° C. After 24 hours, the TR-FRET signal was measured using a PerkinElmer EnVision multimode plate reader and the resulting ratiometric data set (signal at 665 nm/615 nm, multiplied by a factor of 10,000) was recorded. The concentration giving half-maximal inhibition (the IC50) was obtained by fitting the data to a four-parameter logistic equation using Graphpad Prism or Dotmatics.

[3] = biological target: T3, PE-labeled human PD-L1-Ig binding to Jurkat cell line over-expressing human PD-1 (Jurkat-PD-1) (Homo sapiens, UniProt Q15116); experiment: Jurkat-PD-1 Cell Binding High-Content Screening Assay (CBA): Method 2 (presence and absence of tween-20); settings: Jurkat-PD-1 cells, PE-labeled PD-L1-Ig 20 nM; presence or absence of tween-20 not given; head μM; read-out: CBA Method 2 μM
T3 construct: expressed in transfected cells; host or cells: Jurkat
T3 sequence (Q15116 25-288): as the sequence (Q15116 25-288) above
Method in brief: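 Compounds incubated with Jurkat cells overexpressing human PD-1 for 2 h at 37° C, tested with and without tween-20 to flag aggregation. PE-labeled human PD-L1-Ig (20 nM final) added in DMEM/10% FCS; binding read by high-content imaging.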

[4] = biological target: T3, PE-labeled human PD-L1-Ig binding to Jurkat cell line over-expressing human PD-1 (Jurkat-PD-1); experiment: Jurkat-PD-1 Cell Binding High-Content Screening Assay (CBA): Method 1; settings: Jurkat-PD-1 cells, PE-labeled PD-L1-Ig; μM; read-out: CBA Method 1 μM

Structure (SMILES)	IC50 ([1]; nM, read-out: CBA Method 3)	IC50 ([2]; head μM)	further results
Cc1cccc(C[C@@H]2NC(=O)[C@H](CC(=O)O)NC(=O)[C@H](Cc3ccc(OCC(=O)O)cc3)NC(=O)[C@H](Cc3cccc(CNC(=N)N)c3)NC(=O)CSC[C@@H](C(=O)N[C@@H](CCN)C(N)=O)NC(=O)[C@H](CCCN)NC(=O)[C@H](C(C)C)NC(=O)[C@H](CC3CCCCC3)NC(=O)[C@H](CCN)NC(=O)[C@@H](CC(C)C)NC(=O)[C@H](C)N(C)C(=O)[C@H](CCC(N)=O)NC(=O)[C@H](Cc3ccc(-c4ccccc4)cc3)NC(=O)[C@H](Cc3ccc(C(=O)O)cc3)NC2=O)c1 [Example 5279] ({CH2CO}-[X8]Y(Carboxymethyl)D[Phe(3-Me)][Phe(4-COOH)][Bip]Q[NMeA][dL][Dab][Cha]V[Orn]C[Dab]-NH2; thioether N-14)	3 nM	0.015 µM	
Cc1cccc(C[C@@H]2NC(=O)[C@H](CC(=O)O)NC(=O)[C@H](Cc3ccc(OCC(=O)O)cc3)NC(=O)[C@H](Cc3ccccc3C(F)(F)F)NC(=O)CSC[C@@H](C(=O)N[C@@H](CCN)C(N)=O)NC(=O)[C@H](CCCN)NC(=O)[C@H](C(C)C)NC(=O)[C@H](CC3CCCCC3)NC(=O)[C@H](CCN)NC(=O)[C@@H](CC(C)C)NC(=O)[C@H](C)N(C)C(=O)[C@H](CCC(N)=O)NC(=O)[C@H](Cc3ccc(-c4ccccc4)cc3)NC(=O)[C@H](Cc3ccc(C(=O)O)cc3)NC2=O)c1 [Example 5292] ({CH2CO}-[Phe(2-CF3)]Y(Carboxymethyl)D[Phe(3-Me)][Phe(4-COOH)][Bip]Q[NMeA][dL][Dab][Cha]V[Orn]C[Dab]-NH2; thioether N-14)	0.2 nM	0.03 µM	
Cc1cccc(C[C@@H]2NC(=O)[C@H](CC(=O)O)NC(=O)[C@H](Cc3ccc(OCC(=O)O)cc3)NC(=O)[C@H](Cc3cc(F)cc(F)c3)NC(=O)CSC[C@@H](C(=O)N[C@@H](CCN)C(N)=O)NC(=O)[C@H](CCCN)NC(=O)[C@H](C(C)C)NC(=O)[C@H](CC3CCCCC3)NC(=O)[C@H](CCN)NC(=O)[C@@H](CC(C)C)NC(=O)[C@H](C)N(C)C(=O)[C@H](CCC(N)=O)NC(=O)[C@H](Cc3ccc(-c4ccccc4)cc3)NC(=O)[C@H](Cc3ccc(C(=O)O)cc3)NC2=O)c1 [Example 5284] ({CH2CO}-[Phe(3,5-F2)]Y(Carboxymethyl)D[Phe(3-Me)][Phe(4-COOH)][Bip]Q[NMeA][dL][Dab][Cha]V[Orn]C[Dab]-NH2; thioether N-14)		0.01 µM	IC50 ([1]; head μM, read-out: CBA Method 3 μM): 200 nM
CCC[C@@H]1NC(=O)CSC[C@@H](C(=O)N[C@@H](CCN)C(N)=O)NC(=O)[C@H](CCCN)NC(=O)[C@H](C(C)C)NC(=O)[C@H](CC2CCCCC2)NC(=O)[C@H](CCN)NC(=O)[C@@H](CC(C)C)NC(=O)[C@H](C)N(C)C(=O)[C@H](CCC(N)=O)NC(=O)[C@H](Cc2ccc(-c3ccccc3)cc2)NC(=O)[C@H](Cc2ccc(C(=O)O)cc2)NC(=O)[C@H](Cc2cccc(C)c2)NC(=O)[C@H](CC(=O)O)NC(=O)[C@H](Cc2ccc(OCC(=O)O)cc2)NC1=O [Example 5297] ({CH2CO}-[Nva]Y(Carboxymethyl)D[Phe(3-Me)][Phe(4-COOH)][Bip]Q[NMeA][dL][Dab][Cha]V[Orn]C[Dab]-NH2; thioether N-14)			IC50 ([2]; nM): 0.0023 µM
Cc1cccc(C[C@@H]2NC(=O)[C@H](CC(=O)O)NC(=O)[C@H](Cc3ccc(OCC(=O)O)cc3)NC(=O)[C@H](CN3CCOCC3)NC(=O)CSC[C@@H](C(=O)N[C@@H](CCN)C(N)=O)NC(=O)[C@H](CCCN)NC(=O)[C@H](C(C)C)NC(=O)[C@H](CCc3ccccc3)NC(=O)[C@H](CCN)NC(=O)[C@@H](CC(C)C)NC(=O)[C@H](C)N(C)C(=O)[C@H](CCC(N)=O)NC(=O)[C@H](Cc3ccc(-c4ccccc4)cc3)NC(=O)[C@H](Cc3ccc(C(=O)O)cc3)NC2=O)c1 [Example 5015] ({CH2CO}-[Ala(morpholin-4-yl)]Y(Carboxymethyl)D[Phe(3-Me)][Phe(4-COOH)][Bip]Q[NMeA][dL][Dab][hPhe]V[Orn]C[Dab]-NH2; thioether N-14)			IC50 [3]: 0.31 µM; IC50 [4]: 0.21 µM

Source: patent publication US20240409585A1, “MACROCYCLIC IMMUNOMODULATORS” (priority 2021, published 2024)
